Tests used:
HL-60(TB) = format: cell-based, human; conditions: Leukemia, 10 μM, 48 h
Procedure: The human tumor cell lines of the cancer screening panel were grown in RPMI 1640 medium containing 5% fetal bovine serum and 2 mM L-glutamine. For experimental screens, cells were inoculated into 96 well microtiter plates in 100 μL at plating densities ranging from 5,000 to 40,000 cells/well depending on the doubling time of individual cell lines. After cell inoculation, the microtiter plates were incubated at 37° C., 5% carbon dioxide, 95% air and 100% relative humidity for 24 hours prior to addition of the compounds.

[1] = test system: approximately 60 human tumor cell lines; assay: NCI DTP human tumor cell line screen, whole panel statistics; format: cell-based; conditions: for mean growth percent: mean over all cell lines tested
Procedure: Representative compounds of the invention, prepared as described in EXAMPLES 1-6, were submitted to the Developmental Therapeutics Program of the United States National Cancer Institute (NCl) to screen for anti-cancer activity. The anti-cancer activities of the six compounds were tested against approximately 60 human tumor cell lines representing leukemia, melanoma, and cancers of the lung, colon, breast, ovary, kidney, prostate, and brain. The following screening methodology was provided by the NCl. […] For experimental screens, cells were inoculated into 96 well microtiter plates in 100 μL at plating densities ranging from 5,000 to 40,000 cells/well depending on the doubling time of individual cell lines. After cell inoculation, the microtiter plates were incubated at 37° C., 5% carbon dioxide, 95% air and 100% relative humidity for 24 hours prior to addition of the compounds. After 24 hours of incubation, two plates of each cell line were fixed in situ with trichloroacetic acid (TCA) to represent a measurement of the cell population for each cell line at the time of compound addition (Tz). The compounds were solubilized in dimethyl sulfoxide at 400-fold the desired final maximum test concentration and stored frozen prior to use. At the time of drug addition, frozen aliquots of the compounds thawed and diluted with complete medium containing 50 μg/ml gentamicin. Aliquots of 100 μl of these different compound dilutions were added to the appropriate microtiter wells already containing 100 μl of medium, resulting in the required final compound concentration of 10 μM. Following compound addition, the plates were incubated for an additional 48 h at 37° C., 5% carbon dioxide, 95% air, and 100% relative humidity. For adherent cells, the assay was terminated by the addition of cold TCA. Cells were fixed in situ by the gentle addition of 50 μl of cold 50% (w/v) TCA (final concentration, 10% TCA) and incubated for 60 minutes at 4° C. The supernatant was discarded, and the plates were washed five times with tap water and air dried. Sulforhodamine B (SRB) solution (100 μl) at 0.4% (w/v) in 1% acetic acid was added to each well, and plates were incubated for 10 minutes at room temperature. After staining, unbound dye was removed by washing five times with 1% acetic acid and the plates were air dried. Bound stain was subsequently solubilized with 10 mM trizma base, and the absorbance was read on an automated plate reader at a wavelength of 515 nm. For suspension cells, the methodology was the same except that the assay was terminated by fixing settled cells at the bottom of the wells by gently adding 50 μl of 80% TCA (final concentration, 16% TCA). Using the three absorbance measurements [time zero, (Tz), control growth, (C), and test growth in the presence of compound (Ti)], the percentage growth was calculated at each of the compound concentrations levels. Percentage growth inhibition was calculated with the following algorithms: [(Ti−Tz)/(C−Tz)]×100 for concentrations for which Ti>/=Tz [(Ti−Tz)/Tz]×100 for concentrations for which Ti<Tz The results of the NCl in vitro anticancer screening with six compounds against various human tumor cell lines are presented below in Tables 2-7. […] The growth percent mean, delta, and range for each compound are given below.

NCI/ADR-RES = assay: NCI DTP human tumor cell line screen (SRB); format: cell-based; conditions: Breast Cancer, 10 μM, 48 h
How it was run: (§1)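 Cells plated and preincubated 24 h at 37 °C, 5% CO2, then exposed to compound at 10 μM final for 48 h. Adherent cells fixed with cold TCA, stained with SRB, absorbance read at 515 nm. Percent growth derived from time-zero (Tz), control (C) and treated (Ti) readings.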

CAKI-1 = assay: NCI DTP human tumor cell line screen (SRB); format: cell-based; conditions: Renal Cancer, 10 μM, 48 h
How it was run: as §1

SK-MEL-28 = assay: NCI DTP human tumor cell line screen (SRB); format: cell-based; conditions: Melanoma, 10 μM, 48 h
How it was run: as §1

BT-549 = assay: NCI DTP human tumor cell line screen (SRB); format: cell-based; conditions: Breast Cancer, 10 μM, 48 h
How it was run: as §1

UACC-257 = assay: NCI DTP human tumor cell line screen (SRB); format: cell-based; conditions: Melanoma, 10 μM, 48 h
How it was run: as §1

NCI-H522 = assay: NCI DTP human tumor cell line screen (SRB); format: cell-based; conditions: Non-Small Cell Lung Cancer, 10 μM, 48 h
How it was run: as §1

SK-OV-3 = assay: NCI DTP human tumor cell line screen (SRB); format: cell-based; conditions: Ovarian Cancer, 10 μM, 48 h
How it was run: as §1

786-0 = assay: NCI DTP human tumor cell line screen (SRB); format: cell-based; conditions: Renal Cancer, 10 μM, 48 h
How it was run: as §1

SN12C = assay: NCI DTP human tumor cell line screen (SRB); format: cell-based; conditions: Renal Cancer, 10 μM, 48 h
How it was run: as §1

HCC-2998 = assay: NCI DTP human tumor cell line screen (SRB); format: cell-based; conditions: Colon Cancer, 10 μM, 48 h
How it was run: as §1

SK-MEL-5 = assay: NCI DTP human tumor cell line screen (SRB); format: cell-based; conditions: Melanoma, 10 μM, 48 h
How it was run: as §1

HS 578T = assay: NCI DTP human tumor cell line screen (SRB); format: cell-based; conditions: Breast Cancer, 10 μM, 48 h
How it was run: as §1

MALME-3M = assay: NCI DTP human tumor cell line screen (SRB); format: cell-based; conditions: Melanoma, 10 μM, 48 h
How it was run: as §1

OVCAR-5 = assay: NCI DTP human tumor cell line screen (SRB); format: cell-based; conditions: Ovarian Cancer, 10 μM, 48 h
How it was run: as §1

RXF 393 = assay: NCI DTP human tumor cell line screen (SRB); format: cell-based; conditions: Renal Cancer, 10 μM, 48 h
How it was run: as §1

IGROV1 = assay: NCI DTP human tumor cell line screen (SRB); format: cell-based; conditions: Ovarian Cancer, 10 μM, 48 h
How it was run: as §1

SW-620 = assay: NCI DTP human tumor cell line screen (SRB); format: cell-based; conditions: Colon Cancer, 10 μM, 48 h
How it was run: as §1

SNB-75 = assay: NCI DTP human tumor cell line screen (SRB); format: cell-based; conditions: CNS Cancer, 10 μM, 48 h
How it was run: as §1

A549/ATCC = assay: NCI DTP human tumor cell line screen (SRB); format: cell-based; conditions: Non-Small Cell Lung Cancer, 10 μM, 48 h
How it was run: as §1

UACC-62 = assay: NCI DTP human tumor cell line screen (SRB); format: cell-based; conditions: Melanoma, 10 μM, 48 h
How it was run: as §1

DU-145 = assay: NCI DTP human tumor cell line screen (SRB); format: cell-based; conditions: Prostate Cancer, 10 μM, 48 h
How it was run: as §1

KM12 = assay: NCI DTP human tumor cell line screen (SRB); format: cell-based; conditions: Colon Cancer, 10 μM, 48 h
How it was run: as §1

OVCAR-3 = assay: NCI DTP human tumor cell line screen (SRB); format: cell-based; conditions: Ovarian Cancer, 10 μM, 48 h
How it was run: as §1

NCI-H322M = assay: NCI DTP human tumor cell line screen (SRB); format: cell-based; conditions: Non-Small Cell Lung Cancer, 10 μM, 48 h
How it was run: as §1

TK-10 = assay: NCI DTP human tumor cell line screen (SRB); format: cell-based; conditions: Renal Cancer, 10 μM, 48 h
How it was run: as §1

[2] = over all cell lines tested, 10 μM, 48 h

For Cc1ncc(CO)c(C=NNC(=O)c2ccc(COC3OC4OC5(C)CCC6C(C)CCC(C3C)C46OO5)cc2)c1O (stereo not shown) [ART-Phe-Pyridoxal, N′-(5-hydroxy-3-hydroxymethyl-2-methyl-4-pyridylidene)-4-(dihydroxyartemisinin-methyl)-phenyl carbohydrazide], the “Growth Percent” value (HL-60(TB)) was −4.98%, the “inhibitory activities against cancer cells” value ([1]; DTP human tumor cell line screen, non-small cell lung, colon, breast, ovarian, leukemia, renal, melanoma, prostate, CNS cancer) was “inhibitory activities against several types of cancer cells” and the mean growth percent ([1]; 10 μM, 48 h) was 7.85%. For the same compound, the “delta value (growth percent)” value [1, 2] was 51.68, the “range (growth percent)” value [1, 2] was 88.81 and the mean growth percent ([1]; summary text, 10 μM, 48 h) was 7.85%. For the same compound, the “Growth Percent” value (NCI/ADR-RES) was 44.16%, the “Growth Percent” value (CAKI-1) was −12.33% and the “Growth Percent” value (SK-MEL-28) was −7.02%. The “Growth Percent” value (BT-549) was −18.57%, the “Growth Percent” value (UACC-257) was 1.40% and the “Growth Percent” value (NCI-H522) was 38.92%. The “Growth Percent” value (SK-OV-3) was −4.66%, the “Growth Percent” value (786-0) was −19.54% and the “Growth Percent” value (SN12C) was 16.82%. The “Growth Percent” value (HCC-2998) was 27.38%, the “Growth Percent” value (SK-MEL-5) was −43.83% and the “Growth Percent” value (HS 578T) was −15.69%. For the same compound, the “Growth Percent” value (MALME-3M) was −17.79%, the “Growth Percent” value (OVCAR-5) was 44.98% and the “Growth Percent” value (RXF 393) was 35.07%. For the same compound, the “Growth Percent” value (IGROV1) was 1.58%, the “Growth Percent” value (SW-620) was 14.32% and the “Growth Percent” value (SNB-75) was 42.44%. The “Growth Percent” value (A549/ATCC) was 26.36%, the “Growth Percent” value (UACC-62) was −8.10% and the “Growth Percent” value (DU-145) was −9.65%. The “Growth Percent” value (KM12) was 17.87%, the “Growth Percent” value (OVCAR-3) was 19.87% and the “Growth Percent” value (NCI-H322M) was 14.34%. The “Growth Percent” value (TK-10) was 6.35%.
